We go through four molecules from patent US12144824B2, “Method for enhancing embryo implantation” (The Flinders University of South Australia, priority 2018, dated 2024).

SMILES strings stand for the structures. Some results are limits rather than exact numbers.

For series [1], the system named is VEGF production, human Ishikawa endometrial adenocarcinoma cell line. Nature of the series: VEGF production by Ishikawa cells exposed to copper or zinc chloride solutions (multiplex immunoassay). Type of series: cell-based. As to the method: Medium was refreshed every 48 hours. Cells were subcultured using 0.25% trypsin/EDTA (Invitrogen).
Series [2] has as its system LIF production, human Ishikawa endometrial adenocarcinoma cell line.
Protocol: (§1) The human Ishikawa endometrial adenocarcinoma cell line (Sigma-Aldrich; St Louis, MO, United States of America) was used to model the endometrium's response to copper and zinc metal ions (Cu^2+ and Zn^2+). Cells were grown in T75 flasks (Nalge Nunc International, Rochester, NY, United States of America) in Ishikawa medium, consisting of αMEM (Sigma-Aldrich) supplemented with 5% foetal bovine serum (Invitrogen Corp, Carlsbad, CA, United States of America), 2 mM glutamine (Sigma-Aldrich) and 1% non-essential amino acids (Sigma-Aldrich) without antibiotics at 37° C. under a gas atmosphere of 5% CO2 in air. Medium was refreshed every 48 hours. Cells were subcultured using 0.25% trypsin/EDTA (Invitrogen). For metal ion exposure experiments, cells were seeded onto 2-well chamber slides (Ibidi, Martinsried, Germany). After the endometrial cells had attached and reached 80-90% confluence they were then exposed to copper and zinc metal ions using two approaches (salt solution or metal implant) as described below.
(§2) Copper or zinc chloride (Sigma-Aldrich) was dissolved in Ishikawa medium to produce salt solutions at various concentrations in the range of 0.2 μM and 200 μM, before being applied to Ishikawa cells seeded into 2-well chamber slides for a period of 8 hours. Following the 8 hours exposure, culture media were removed, centrifuged at 1000 g for 10 minutes at 4° C. to pellet any cellular debris, and then the supernatants were stored in Eppendorf tubes at −80° C. Subsequently, the supernatants were assayed for both LIF and VEGF content using a multiplex immunoassay system (elisakit.com, Scoresby, VIC, Australia).
Series [3] shares this test system. Nature of the series: LIF production by Ishikawa cells exposed to copper or zinc chloride solutions (multiplex immunoassay).
Protocol: as §1, §2
The next series has as its system murine day 3 embryos. Nature of the series: Mouse embryo development and blastocyst outgrowth assay on fibronectin-coated plates. As to conditions: short term exposure. It counts as cell-based. As for the experimental part:
Ishikawa cells were seeded onto 2-well chamber slides in Ishikawa medium until they reached 80-90% confluence. Then, 5 minutes prior to exposure to metal implants, the medium was changed to G2 embryo culture medium, and the Ishikawa cells exposed to copper, zinc or copper-zinc bimetal implants for either 2 or 5 minutes duration (or remained unexposed (control)), and the resulting G2 culture media collected 8 hours later.
To determine whether metal ions were capable of enhancing embryo implantation, post-compaction mouse embryos were exposed to the “conditioned media” prior to undergoing outgrowth assays. In particular, pronucleate oocytes were collected from superovulated female F1 mice ˜21-22 hours post-hCG. Following cumulus cell removal, oocytes were cultured in 20 μl drops (10 embryos/drop) of G1 medium under paraffin oil (Vitrolife) at 37° C. in 6% CO2, 5% O2 and 89% N2. After 48 hours, compacting and morulae stage embryos were randomly transferred to culture in either (i) control G2 medium (Vitrolife) that had not been exposed to Ishikawa cells; (ii) individual culture in 2 μl of control, Ishikawa exposed G2; or (iii) individual culture in 2 μl drops of 2 minute copper-zinc bimetal implant exposed G2 medium. After 48 hours, the capacity of blastocysts to undergo outgrowth was assessed in the following manner. […] All images were collected and analysed at matching magnification.

Regarding `[Cl][Cu][Cl]` [CuCl2, copper chloride], in series [1] (8 hours exposure), the “concentration of peak VEGF production” value is 100 µM and the “concentration producing a significant increase in VEGF production” value is “above 20 μM”. Further, the “lowest amount confirmed to elicit an increase in endometrial VEGF” value in series [1] (Example 1) was found to be 20 µM. Further, in series [1] (in vitro), the “concentration exceeding which a relative decline in endometrial VEGF production was observed” value was “exceeding 100 μM”. In addition, the “toxicity in relation to LIF production” value in series [2] is reported as “No toxicity”. The “increase in endometrial LIF production” value in series [3] (CuCl2 200 μM) turned out to be 4 fold. Moreover, in series [3] (CuCl2 200 μM, 8 hours), the “LIF production increase above baseline” value turned out to be 420%. The “lowest amount confirmed to elicit an increase in endometrial LIF” value in series [3] (Example 1) turned out to be 20 µM. Besides, in series [3] (salt solution in Ishikawa medium, 8 hours exposure), the “concentration producing a significant increase in LIF production” value is “exceeding 2 μM”.
As to `[Zn+2]` [zinc ions], the “toxicity to pre-implantation embryo development” value in the series with murine day 3 embryos was “not significant”.
For the molecule `[Cl-].[Cl-].[Zn+2]` [ZnCl2, zinc chloride], in series [1] (8 hours exposure), the “concentration from which VEGF production appeared reduced” value was at least 150 µM and the “increase in VEGF compared to controls” value is “no significant increase”. Besides, the “dose above which toxicity, with a reduction in LIF production, was observed” value in series [3] (8 hours exposure) was “exceeding 150 μM”.
In the case of `[Cu+2]` [copper ions], the “toxicity to pre-implantation embryo development” value with murine day 3 embryos was “not significant”.
